Measurements from PMC5218480 (PLoS ONE, 2017).

System: MV-4-11 cells
Experiment: Gene expression microarray analysis (Affymetrix PrimeView) and GSEA
Type: cell-based, human
Design: RFU PODN (11730768_x_at) / Fold change /veh PODN (11730768_x_at) / RFU LINC00158 (11744669_a_at) / Fold change /veh LINC00158 (11744669_a_at) / RFU DUSP10 (11751237_a_at) / Fold change /veh DUSP10 (11751237_a_at) / RFU ID3 (11757404_x_at) / Fold change /veh ID3 (11757404_x_at) / RFU PLEKHG5 (11737974_s_at) / Fold change /veh PLEKHG5 (11737974_s_at) / RFU LRRC4B (11730491_at) / Fold change /veh LRRC4B (11730491_at) / RFU GIMAP4 (11747438_a_at) / Fold change /veh GIMAP4 (11747438_a_at) / RFU KRT8 (11758183_x_at) / Fold change /veh KRT8 (11758183_x_at) / RFU CNN1 (11734310_a_at) / Fold change /veh CNN1 (11734310_a_at) / RFU VPS37D (11726825_at) / Fold change /veh VPS37D (11726825_at) / RFU C10orf10 (11716522_x_at) / Fold change /veh C10orf10 (11716522_x_at) / RFU KIR2DL2 /// KIR2DL4 /// KIR2DL5A /// KIR2DL5B /// KIR2DS1 /// KIR2DS2 /// KIR2DS3 /// KIR2DS4 /// KIR3DL3 /// KIR3DL3 /// KIR3DS1 (11738374_at) / Fold change /veh KIR2DL2 /// KIR2DL4 /// KIR2DL5A /// KIR2DL5B /// KIR2DS1 /// KIR2DS2 /// KIR2DS3 /// KIR2DS4 /// KIR3DL3 /// KIR3DL3 /// KIR3DS1 (11738374_at) / RFU C1QL1 (11718748_at) / Fold change /veh C1QL1 (11718748_at) / RFU TMPRSS4 (11747572_a_at) / Fold change /veh TMPRSS4 (11747572_a_at) / RFU HAMP (11756126_x_at) / Fold change /veh HAMP (11756126_x_at) / RFU RNFT2 (11725882_a_at) / Fold change /veh RNFT2 (11725882_a_at) / RFU NR4A2 (11747474_a_at) / Fold change /veh NR4A2 (11747474_a_at) / RFU ABCC12 (11746883_a_at) / Fold change /veh ABCC12 (11746883_a_at) / RFU TMEM136 (11760407_x_at) / Fold change /veh TMEM136 (11760407_x_at) / RFU CLDN22 /// WWC2 (11732394_at) / Fold change /veh CLDN22 /// WWC2 (11732394_at) / RFU HLA-DPB1 (11760878_x_at) / Fold change /veh HLA-DPB1 (11760878_x_at) / RFU SPINT1 (11716480_a_at) / Fold change /veh SPINT1 (11716480_a_at) / RFU GAP43 (11754022_s_at) / Fold change /veh GAP43 (11754022_s_at) / RFU A4GNT (11735810_at) / Fold change /veh A4GNT (11735810_at) / RFU PRB3 (11715151_x_at) / Fold change /veh PRB3 (11715151_x_at) / RFU TUBB4B (11761932_at) / Fold change /veh TUBB4B (11761932_at) / RFU CAPN14 (11732068_a_at) / Fold change /veh CAPN14 (11732068_a_at) / RFU TMCC2 (11721928_a_at) / Fold change /veh TMCC2 (11721928_a_at) / RFU IRGQ (11745062_a_at) / Fold change /veh IRGQ (11745062_a_at) / RFU FAM174B (11720279_a_at) / Fold change /veh FAM174B (11720279_a_at) / RFU TMPRSS4 (11748680_a_at) / Fold change /veh TMPRSS4 (11748680_a_at) / RFU FAM212B (11763350_a_at) / Fold change /veh FAM212B (11763350_a_at) / RFU PLEKHG5 (11743358_a_at) / Fold change /veh PLEKHG5 (11743358_a_at) / RFU ZSCAN30 (11745921_a_at) / Fold change /veh ZSCAN30 (11745921_a_at) / RFU CMKLR1 (11741424_a_at) / Fold change /veh CMKLR1 (11741424_a_at) / RFU LOC101060620 /// MAPK8IP1 (11723275_at) / Fold change /veh LOC101060620 /// MAPK8IP1 (11723275_at) / RFU SPTSSB (11747773_x_at) / Fold change /veh SPTSSB (11747773_x_at) / RFU PRSS12 (11739890_at) / Fold change /veh PRSS12 (11739890_at) / RFU BIN1 (11741810_x_at) / Fold change /veh BIN1 (11741810_x_at) / RFU WNT11 (11732464_a_at) / Fold change /veh WNT11 (11732464_a_at) / RFU C10orf10 (11716521_a_at) / Fold change /veh C10orf10 (11716521_a_at) / RFU C5orf56 (11738089_at) / Fold change /veh C5orf56 (11738089_at) / RFU CYB561 (11721691_x_at) / Fold change /veh CYB561 (11721691_x_at) / RFU ANKRD19P (11752326_a_at) / Fold change /veh ANKRD19P (11752326_a_at) / RFU OR2T12 /// OR2T33 /// OR2T8 (11738714_s_at) / Fold change /veh OR2T12 /// OR2T33 /// OR2T8 (11738714_s_at) / RFU VCAN (11748164_a_at) / Fold change /veh VCAN (11748164_a_at) / RFU JSRP1 (11732532_at) / Fold change /veh JSRP1 (11732532_at) / RFU KRTAP10-11 (11738290_x_at) / Fold change /veh KRTAP10-11 (11738290_x_at) / RFU MYO3A (11730013_a_at) / Fold change /veh MYO3A (11730013_a_at) / RFU EBF3 (11725865_a_at) / Fold change /veh EBF3 (11725865_a_at) / RFU CAMK2N1 (11719241_x_at) / Fold change /veh CAMK2N1 (11719241_x_at) / RFU C5orf56 (11738088_a_at) / Fold change /veh C5orf56 (11738088_a_at) / RFU OLFML3 (11715873_a_at) / Fold change /veh OLFML3 (11715873_a_at) / RFU LOC100653217 /// NTM (11731650_a_at) / Fold change /veh LOC100653217 /// NTM (11731650_a_at) / RFU MAPK11 (11762145_a_at) / Fold change /veh MAPK11 (11762145_a_at) / RFU FIZ1 (11724087_x_at) / Fold change /veh FIZ1 (11724087_x_at) / RFU OASL (11726364_x_at) / Fold change /veh OASL (11726364_x_at) / RFU SOX15 (11748057_x_at) / Fold change /veh SOX15 (11748057_x_at) / RFU CD79A (11719716_a_at) / Fold change /veh CD79A (11719716_a_at) / RFU HIST1H1D (11736915_at) / Fold change /veh HIST1H1D (11736915_at) / RFU CASKIN2 (11723855_a_at) / Fold change /veh CASKIN2 (11723855_a_at) / RFU LOC730098 (11760151_x_at) / Fold change /veh LOC730098 (11760151_x_at) / RFU OR4N2 (11742367_at) / Fold change /veh OR4N2 (11742367_at) / RFU PRRT2 (11749266_a_at) / Fold change /veh PRRT2 (11749266_a_at) / RFU SNX32 (11753110_a_at) / Fold change /veh SNX32 (11753110_a_at) / RFU CDHR5 (11726645_a_at) / Fold change /veh CDHR5 (11726645_a_at) / RFU RCAN1 (11760418_a_at) / Fold change /veh RCAN1 (11760418_a_at) / RFU FAM167A (11723789_a_at) / Fold change /veh FAM167A (11723789_a_at) / RFU FAM26E (11764081_at) / Fold change /veh FAM26E (11764081_at) / RFU ISYNA1 (11749810_s_at) / Fold change /veh ISYNA1 (11749810_s_at) / RFU ACY1 (11761880_at) / Fold change /veh ACY1 (11761880_at) / RFU 11764098_at / Fold change /veh 11764098_at / RFU SAMD14 (11745864_x_at) / Fold change /veh SAMD14 (11745864_x_at) / RFU NPB (11741838_a_at) / Fold change /veh NPB (11741838_a_at) / RFU TMPRSS6 (11731388_a_at) / Fold change /veh TMPRSS6 (11731388_a_at) / RFU KRTAP10-2 (11738614_at) / Fold change /veh KRTAP10-2 (11738614_at) / RFU ARHGAP8 /// PRR5-ARHGAP8 (11727945_x_at) / Fold change /veh ARHGAP8 /// PRR5-ARHGAP8 (11727945_x_at) / RFU KRTAP5-7 /// NADSYN1 (11734609_at) / Fold change /veh KRTAP5-7 /// NADSYN1 (11734609_at) / RFU RASL12 (11751679_a_at) / Fold change /veh RASL12 (11751679_a_at) / RFU CDKN2B (11736163_a_at) / Fold change /veh CDKN2B (11736163_a_at) / RFU PRF1 (11729649_at) / Fold change /veh PRF1 (11729649_at) / RFU, ZNF638 /// ZNF638-IT1 / Fold change vs veh, ZNF638 /// ZNF638-IT1 / RFU, PANK3 / Fold change vs veh, PANK3 / RFU, SH3YL1 / Fold change vs veh, SH3YL1 / RFU, ZEB2 / Fold change vs veh, ZEB2 / RFU, NRIP1 / Fold change vs veh, NRIP1 / RFU, PTTG1IP / Fold change vs veh, PTTG1IP / RFU, CAPN2 / Fold change vs veh, CAPN2 / RFU, MED14 / Fold change vs veh, MED14 / RFU, SNORA58 / Fold change vs veh, SNORA58 / RFU, C1orf63 / Fold change vs veh, C1orf63 / RFU, LRRFIP1 / Fold change vs veh, LRRFIP1 / RFU, NDUFAF7 / Fold change vs veh, NDUFAF7 / RFU, SLC12A2 / Fold change vs veh, SLC12A2 / RFU, IBTK / Fold change vs veh, IBTK / RFU, ESF1 / Fold change vs veh, ESF1 / Fold change vs veh, TMEM50B / RFU, TAOK1 / Fold change vs veh, TAOK1 / RFU, ACBD3 / Fold change vs veh, ACBD3 / RFU, TMA16 / Fold change vs veh, TMA16 / RFU, RWDD3 / Fold change vs veh, RWDD3 / RFU, BCAT1 / Fold change vs veh, BCAT1 / RFU, EDEM3 / Fold change vs veh, EDEM3 / RFU, TMEM33 / Fold change vs veh, TMEM33 / RFU, WDR75 / Fold change vs veh, WDR75 / RFU, AHCTF1 / Fold change vs veh, AHCTF1 / RFU, TFRC / Fold change vs veh, TFRC / RFU, ZDHHC17 / Fold change vs veh, ZDHHC17 / RFU, NOM1 / Fold change vs veh, NOM1 / RFU, ARL8B / Fold change vs veh, ARL8B / RFU, ZBTB11 / Fold change vs veh, ZBTB11 / RFU, TAMM41 / Fold change vs veh, TAMM41 / RFU, KIAA1704 /// LOC100996395 / Fold change vs veh, KIAA1704 /// LOC100996395 / RFU, ING1 / Fold change vs veh, ING1 / RFU, TRMT61B / Fold change vs veh, TRMT61B / RFU, FUBP3 / Fold change vs veh, FUBP3 / RFU, TP53 / Fold change vs veh, TP53 / RFU, TNKS2 / Fold change vs veh, TNKS2 / RFU, ZFP14 / Fold change vs veh, ZFP14 / RFU, ACTR2 / Fold change vs veh, ACTR2 / RFU, PPP3R1 / Fold change vs veh, PPP3R1 / RFU, PIK3R1 / Fold change vs veh, PIK3R1 / RFU, HNRNPA1 / Fold change vs veh, HNRNPA1 / RFU, RNF170 / Fold change vs veh, RNF170 / RFU, ZNF28 / Fold change vs veh, ZNF28 / RFU, RNGTT / Fold change vs veh, RNGTT / RFU, OGT / Fold change vs veh, OGT / RFU, BRD1 / Fold change vs veh, BRD1 / RFU, MARS / Fold change vs veh, MARS / RFU, ZNF655 / Fold change vs veh, ZNF655 / RFU, FAHD1 / Fold change vs veh, FAHD1 / RFU, BDP1 / Fold change vs veh, BDP1 / RFU, LRRCC1 / Fold change vs veh, LRRCC1 / RFU, ARID1A / Fold change vs veh, ARID1A / RFU, ZNF146 / Fold change vs veh, ZNF146 / RFU, ZNF330 / Fold change vs veh, ZNF330 / RFU, GPN3 / Fold change vs veh, GPN3 / RFU, C9orf123 / Fold change vs veh, C9orf123 / RFU, N4BP2L2 / Fold change vs veh, N4BP2L2 / RFU, ARFIP1 / Fold change vs veh, ARFIP1 / RFU, FAM179B / Fold change vs veh, FAM179B / RFU, BCL10 / Fold change vs veh, BCL10 / RFU, UHRF1BP1L / Fold change vs veh, UHRF1BP1L / RFU, BET1 / Fold change vs veh, BET1 / RFU, CNOT2 / Fold change vs veh, CNOT2 / RFU, ZNF268 / Fold change vs veh, ZNF268 / Fold change vs veh, ZNF507 / RFU, DGCR2 / Fold change vs veh, DGCR2 / RFU, WDSUB1 / Fold change vs veh, WDSUB1 / Fold change vs veh, HSP90B1 /// MIR3652 / RFU, ADSS / Fold change vs veh, ADSS / RFU, GK / Fold change vs veh, GK / RFU, ZNF148 / Fold change vs veh, ZNF148 / RFU, TAF9 / Fold change vs veh, TAF9 / RFU, SLC1A5 / Fold change vs veh, SLC1A5 / RFU, SLMO2 / Fold change vs veh, SLMO2 / RFU, ABCC4 / Fold change vs veh, ABCC4 / RFU, LOC101060439 /// RAP1B / Fold change vs veh, LOC101060439 /// RAP1B / RFU, RFX7 / Fold change vs veh, RFX7 / RFU, GTPBP10 / Fold change vs veh, GTPBP10 / RFU, CNEP1R1 / Fold change vs veh, CNEP1R1 / RFU, BIVM-ERCC5 /// ERCC5 / Fold change vs veh, BIVM-ERCC5 /// ERCC5 / RFU, ILF3 / Fold change vs veh, ILF3 / RFU 11762660_at / Fold change /veh 11762660_at / RFU VCAN (11757783_s_at) / Fold change /veh VCAN (11757783_s_at) / RFU DDX43 (11728927_at) / Fold change /veh DDX43 (11728927_at) / RFU KRT8 (11758188_x_at) / Fold change /veh KRT8 (11758188_x_at) / RFU NKD1 (11759106_at) / Fold change /veh NKD1 (11759106_at) / RFU SRD5A1 (11742802_a_at) / Fold change /veh SRD5A1 (11742802_a_at) / RFU TPSAB1 /// TPSB2 (11721975_s_at) / Fold change /veh TPSAB1 /// TPSB2 (11721975_s_at) / RFU GSTM3 (11746129_a_at) / Fold change /veh GSTM3 (11746129_a_at) / RFU IL23R (11737362_x_at) / Fold change /veh IL23R (11737362_x_at) / RFU TMEM51 (11727254_a_at) / Fold change /veh TMEM51 (11727254_a_at) / RFU PIWIL2 (11732686_x_at) / Fold change /veh PIWIL2 (11732686_x_at) / RFU ORM1 (11744905_x_at) / Fold change /veh ORM1 (11744905_x_at) / RFU CCDC152 (11743942_at) / Fold change /veh CCDC152 (11743942_at) / RFU ECM1 (11717891_a_at) / Fold change /veh ECM1 (11717891_a_at) / RFU IL23R (11748794_a_at) / Fold change /veh IL23R (11748794_a_at) / RFU TNFAIP8L3 (11732012_x_at) / Fold change /veh TNFAIP8L3 (11732012_x_at) / RFU MBOAT4 (11741988_at) / Fold change /veh MBOAT4 (11741988_at) / RFU 11764193_at / Fold change /veh 11764193_at / RFU TMEM53 (11763286_at) / Fold change /veh TMEM53 (11763286_at) / RFU MAGEB2 (11727129_at) / Fold change /veh MAGEB2 (11727129_at) / RFU TMEM200A (11744735_a_at) / Fold change /veh TMEM200A (11744735_a_at) / RFU CCDC152 (11751479_a_at) / Fold change /veh CCDC152 (11751479_a_at) / RFU FAM211A (11726209_a_at) / Fold change /veh FAM211A (11726209_a_at) / RFU RGS16 (11746705_a_at) / Fold change /veh RGS16 (11746705_a_at) / RFU VCAN (11755009_s_at) / Fold change /veh VCAN (11755009_s_at) / RFU RHOB (11743442_s_at) / Fold change /veh RHOB (11743442_s_at) / RFU RGS16 (11720943_a_at) / Fold change /veh RGS16 (11720943_a_at) / RFU RGS16 (11720944_at) / Fold change /veh RGS16 (11720944_at) / RFU, VPS4B / Fold change vs veh, VPS4B / RFU, CREB1 / Fold change vs veh, CREB1 / RFU, DNAJC13 / Fold change vs veh, DNAJC13 / RFU, GNAQ / Fold change vs veh, GNAQ / RFU, CDK5R1 / Fold change vs veh, CDK5R1 / RFU, ZRANB3 / Fold change vs veh, ZRANB3 / RFU, CUL4A / Fold change vs veh, CUL4A / RFU, CCNY / Fold change vs veh, CCNY / RFU, UFL1 / Fold change vs veh, UFL1 / RFU, COG3 / Fold change vs veh, COG3 / RFU, DIAPH2 / Fold change vs veh, DIAPH2 / RFU, SKA2 / Fold change vs veh, SKA2 / RFU, AFF3 / Fold change vs veh, AFF3 / RFU, LMF1 / Fold change vs veh, LMF1 / RFU, IPO11 / Fold change vs veh, IPO11 / RFU, DFFB / Fold change vs veh, DFFB / RFU, FOXP1 / Fold change vs veh, FOXP1 / RFU, CARD8 / Fold change vs veh, CARD8 / RFU, STRN3 / Fold change vs veh, STRN3 / RFU, ADK / Fold change vs veh, ADK / RFU, RASSF2 / Fold change vs veh, RASSF2 / RFU, WIPF1 / Fold change vs veh, WIPF1 / RFU, LARP1B / Fold change vs veh, LARP1B / RFU, RASA1 / Fold change vs veh, RASA1 / RFU, RB1 / Fold change vs veh, RB1 / RFU, PPFIA1 / Fold change vs veh, PPFIA1 / RFU, MAT2A / Fold change vs veh, MAT2A / RFU, CCT5 / Fold change vs veh, CCT5 / RFU, WDR92 / Fold change vs veh, WDR92 / RFU, CUX1 / Fold change vs veh, CUX1 / RFU, TTC7A / Fold change vs veh, TTC7A / RFU, TMEM135 / Fold change vs veh, TMEM135 / RFU, DEPTOR / Fold change vs veh, DEPTOR / RFU, CPM / Fold change vs veh, CPM / RFU, DNAJB6 / Fold change vs veh, DNAJB6 / RFU, CACNA2D3 / Fold change vs veh, CACNA2D3 / RFU, DTX4 / Fold change vs veh, DTX4 / RFU, TFCP2 / Fold change vs veh, TFCP2 / RFU, GMCL1 /// GMCL1P1 / Fold change vs veh, GMCL1 /// GMCL1P1 / RFU, AEBP2 / Fold change vs veh, AEBP2 / RFU, SNHG1 /// SNORD22 /// SNORD25 /// SNORD26 /// SNORD27 /// SNORD28 /// SNORD29 /// SNORD31 / Fold change vs veh, SNHG1 /// SNORD22 /// SNORD25 /// SNORD26 /// SNORD27 /// SNORD28 /// SNORD29 /// SNORD31 / Fold change (Aza/veh), C12orf56 (ProbeSet 11735607_a_at) / Fold change (ACY-1035/veh), C12orf56 (ProbeSet 11735607_a_at) / Fold change (Aza/veh), FGFR1OP (ProbeSet 11751329_s_at) / Fold change (ACY-1035/veh), FGFR1OP (ProbeSet 11751329_s_at) / Fold change (Aza/veh), VPS36 (ProbeSet 11739960_a_at) / Fold change (ACY-1035/veh), VPS36 (ProbeSet 11739960_a_at) / RFU SYPL1 (11715823_x_at) / Fold change /veh SYPL1 (11715823_x_at) / RFU IGFBP7 (11715501_s_at) / Fold change /veh IGFBP7 (11715501_s_at) / RFU REEP3 (11722064_at) / Fold change /veh REEP3 (11722064_at) / RFU IGLL1 (11728026_x_at) / Fold change /veh IGLL1 (11728026_x_at): dose or concentration left out as unconfirmed
Conditions: ProbeSet 11729173_a_at; LIST D

## Nc1ccc(-c2cccs2)cc1NC(=O)c1ccc2c(c1)cc(C1CC1)n2CCN1CCOCC1 [ACY-1035]
  Fold change vs veh, SKA2: 0.84
